# Data published in the supplement of paper PMC10307832.
# What was measured:
# Assay in all cases: relative viability (nuclei count vs DMSO), 5 days (fraction); higher = more cells survive
# Sorafenib = compound: CNC(=O)c1cc(Oc2ccc(NC(=O)Nc3ccc(Cl)c(C(F)(F)F)c3)cc2)ccn1 [Sorafenib]
# In short: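 Lung cancer cell lines received five library-drug doses (not always all listed) spaced by √10, pinned on vehicle-anchored 1536-well plates after an overnight stay at 37 °C. Five days later, with no medium change, nuclei were Hoechst-stained, imaged at 4× and counted with MetaXpress. Viability is treated-well nuclei relative to vehicle-well nuclei, as a median across plates. Passing plates had control CV below 25% and at least one doubling.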
# Sorafenib + Decitabine = compound: CNC(=O)c1cc(Oc2ccc(NC(=O)Nc3ccc(Cl)c(C(F)(F)F)c3)cc2)ccn1 [Sorafenib] + Nc1ncn([C@H]2C[C@H](O)[C@@H](CO)O2)c(=O)n1 [Decitabine] (partner 2 µM)
# In short: (§1)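 After 5 days of treatment, lung cancer cells in 1536-well plates were fixed and stained in a single step (final 0.05% Triton X-100, 1% formaldehyde, 1 ug/ml Hoechst) and their nuclei counted on 4× images. Treatment had been applied by pin tool the day after seeding as one drug alone or as a fixed anchor-drug dose with five library-drug doses (not always all listed) in √10 steps. Relative viability is the nuclei count of treated wells divided by that of vehicle wells, and values are medians of duplicate plates.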
# Sorafenib + Olaparib = compound: CNC(=O)c1cc(Oc2ccc(NC(=O)Nc3ccc(Cl)c(C(F)(F)F)c3)cc2)ccn1 [Sorafenib] + O=C(c1cc(Cc2n[nH]c(=O)c3ccccc23)ccc1F)N1CCN(C(=O)C2CC2)CC1 [Olaparib] (partner 8 µM)
# In short: as §1
# Sorafenib + Alpelisib = compound: CNC(=O)c1cc(Oc2ccc(NC(=O)Nc3ccc(Cl)c(C(F)(F)F)c3)cc2)ccn1 [Sorafenib] + Cc1nc(NC(=O)N2CCC[C@H]2C(N)=O)sc1-c1ccnc(C(C)(C)C(F)(F)F)c1 [Alpelisib] (partner 2 µM)
# In short: as §1
# Sorafenib + Linsitinib = compound: CNC(=O)c1cc(Oc2ccc(NC(=O)Nc3ccc(Cl)c(C(F)(F)F)c3)cc2)ccn1 [Sorafenib] + C[C@]1(O)C[C@@H](c2nc(-c3ccc4ccc(-c5ccccc5)nc4c3)c3c(N)nccn32)C1 [Linsitinib] (partner 1 µM)
# In short: as §1
# Sorafenib + Lapatinib = compound: CNC(=O)c1cc(Oc2ccc(NC(=O)Nc3ccc(Cl)c(C(F)(F)F)c3)cc2)ccn1 [Sorafenib] + CS(=O)(=O)CCNCc1ccc(-c2ccc3ncnc(Nc4ccc(OCc5cccc(F)c5)c(Cl)c4)c3c2)o1 [Lapatinib] (partner 2 µM)
# In short: as §1
# Sorafenib + Pictilisib = compound: CNC(=O)c1cc(Oc2ccc(NC(=O)Nc3ccc(Cl)c(C(F)(F)F)c3)cc2)ccn1 [Sorafenib] + CS(=O)(=O)N1CCN(Cc2cc3nc(-c4cccc5[nH]ncc45)nc(N4CCOCC4)c3s2)CC1 [Pictilisib] (partner 1 µM)
# In short: as §1
# Sorafenib + Phenformin = compound: CNC(=O)c1cc(Oc2ccc(NC(=O)Nc3ccc(Cl)c(C(F)(F)F)c3)cc2)ccn1 [Sorafenib] + N=C(N)NC(=N)NCCc1ccccc1 [Phenformin] (partner 250 µM)
# In short: as §1
# Sorafenib + Foretinib = compound: CNC(=O)c1cc(Oc2ccc(NC(=O)Nc3ccc(Cl)c(C(F)(F)F)c3)cc2)ccn1 [Sorafenib] + COc1cc2c(Oc3ccc(NC(=O)C4(C(=O)Nc5ccc(F)cc5)CC4)cc3F)ccnc2cc1OCCCN1CCOCC1 [Foretinib] (partner 0.25 µM)
# In short: as §1
# Sorafenib + Crizotinib = compound: CNC(=O)c1cc(Oc2ccc(NC(=O)Nc3ccc(Cl)c(C(F)(F)F)c3)cc2)ccn1 [Sorafenib] + C[C@@H](Oc1cc(-c2cnn(C3CCNCC3)c2)cnc1N)c1c(Cl)ccc(F)c1Cl [Crizotinib] (partner 1 µM)
# In short: as §1
# Sorafenib + Bortezomib = compound: CNC(=O)c1cc(Oc2ccc(NC(=O)Nc3ccc(Cl)c(C(F)(F)F)c3)cc2)ccn1 [Sorafenib] + CC(C)C[C@H](NC(=O)[C@H](Cc1ccccc1)NC(=O)c1cnccn1)B(O)O [Bortezomib] (partner 0.002 µM)
# In short: as §1
# Sorafenib + Navitoclax = compound: CNC(=O)c1cc(Oc2ccc(NC(=O)Nc3ccc(Cl)c(C(F)(F)F)c3)cc2)ccn1 [Sorafenib] + CC1(C)CCC(c2ccc(Cl)cc2)=C(CN2CCN(c3ccc(C(=O)NS(=O)(=O)c4ccc(N[C@H](CCN5CCOCC5)CSc5ccccc5)c(S(=O)(=O)C(F)(F)F)c4)cc3)CC2)C1 [Navitoclax] (partner 0.5 µM)
# In short: as §1
cell line,measurement,setting,value
A549,relative viability,Sorafenib; 0.08 µM,1.07
same,relative viability,Sorafenib; 0.253 µM,0.921
same,relative viability,Sorafenib; 8 µM,0.523
same,relative viability,Sorafenib + Decitabine; first compound 0.08 µM,0.233
same,relative viability,Sorafenib + Decitabine; first compound 0.253 µM,0.34
same,relative viability,Sorafenib + Decitabine; first compound 2.53 µM,0.218
same,relative viability,Sorafenib + Decitabine; first compound 8 µM,0.245
same,relative viability,Sorafenib + Olaparib; first compound 0.08 µM,0.496
same,relative viability,Sorafenib + Olaparib; first compound 0.253 µM,0.289
same,relative viability,Sorafenib + Olaparib; first compound 2.53 µM,0.302
same,relative viability,Sorafenib + Olaparib; first compound 8 µM,0.208
same,relative viability,Sorafenib + Alpelisib; first compound 0.08 µM,0.803
same,relative viability,Sorafenib + Alpelisib; first compound 0.253 µM,0.664
same,relative viability,Sorafenib + Alpelisib; first compound 2.53 µM,0.735
same,relative viability,Sorafenib + Alpelisib; first compound 8 µM,0.453
same,relative viability,Sorafenib + Linsitinib; first compound 0.253 µM,0.622
same,relative viability,Sorafenib + Linsitinib; first compound 2.53 µM,0.512
same,relative viability,Sorafenib + Linsitinib; first compound 8 µM,0.341
same,relative viability,Sorafenib + Lapatinib; first compound 0.08 µM,1.02
same,relative viability,Sorafenib + Lapatinib; first compound 2.53 µM,0.962
same,relative viability,Sorafenib + Lapatinib; first compound 8 µM,0.208
same,relative viability,Sorafenib + Pictilisib; first compound 0.08 µM,0.631
same,relative viability,Sorafenib + Pictilisib; first compound 0.253 µM,0.5
same,relative viability,Sorafenib + Pictilisib; first compound 2.53 µM,0.412
same,relative viability,Sorafenib + Pictilisib; first compound 8 µM,0.116
same,relative viability,Sorafenib + Phenformin; first compound 0.08 µM,0.213
same,relative viability,Sorafenib + Phenformin; first compound 0.253 µM,0.158
same,relative viability,Sorafenib + Phenformin; first compound 2.53 µM,0.193
same,relative viability,Sorafenib + Phenformin; first compound 8 µM,0.0523
same,relative viability,Sorafenib + Foretinib; first compound 0.08 µM,0.904
same,relative viability,Sorafenib + Foretinib; first compound 0.253 µM,0.893
same,relative viability,Sorafenib + Foretinib; first compound 2.53 µM,0.896
same,relative viability,Sorafenib + Foretinib; first compound 8 µM,0.584
Calu-6,relative viability,Sorafenib; 0.08 µM,1.06
same,relative viability,Sorafenib; 0.253 µM,0.959
same,relative viability,Sorafenib; 2.53 µM,0.925
same,relative viability,Sorafenib; 8 µM,0.711
same,relative viability,Sorafenib + Crizotinib; first compound 0.08 µM,0.928
same,relative viability,Sorafenib + Crizotinib; first compound 0.253 µM,0.735
same,relative viability,Sorafenib + Crizotinib; first compound 2.53 µM,0.679
same,relative viability,Sorafenib + Crizotinib; first compound 8 µM,0.366
same,relative viability,Sorafenib + Bortezomib; first compound 0.08 µM,0.948
same,relative viability,Sorafenib + Bortezomib; first compound 0.253 µM,0.936
same,relative viability,Sorafenib + Bortezomib; first compound 2.53 µM,0.934
same,relative viability,Sorafenib + Bortezomib; first compound 8 µM,0.61
same,relative viability,Sorafenib + Olaparib; first compound 0.08 µM,0.538
same,relative viability,Sorafenib + Olaparib; first compound 2.53 µM,0.531
same,relative viability,Sorafenib + Olaparib; first compound 8 µM,0.306
same,relative viability,Sorafenib + Alpelisib; first compound 0.08 µM,0.923
same,relative viability,Sorafenib + Alpelisib; first compound 0.253 µM,0.954
same,relative viability,Sorafenib + Alpelisib; first compound 2.53 µM,0.948
same,relative viability,Sorafenib + Alpelisib; first compound 8 µM,0.487
same,relative viability,Sorafenib + Linsitinib; first compound 0.08 µM,0.885
same,relative viability,Sorafenib + Linsitinib; first compound 2.53 µM,0.904
same,relative viability,Sorafenib + Linsitinib; first compound 8 µM,0.778
same,relative viability,Sorafenib + Lapatinib; first compound 0.08 µM,1.04
same,relative viability,Sorafenib + Lapatinib; first compound 0.253 µM,0.984
same,relative viability,Sorafenib + Lapatinib; first compound 2.53 µM,0.99
same,relative viability,Sorafenib + Lapatinib; first compound 8 µM,0.378
same,relative viability,Sorafenib + Navitoclax; first compound 0.08 µM,0.887
same,relative viability,Sorafenib + Navitoclax; first compound 0.253 µM,0.794
same,relative viability,Sorafenib + Navitoclax; first compound 2.53 µM,0.724
same,relative viability,Sorafenib + Navitoclax; first compound 8 µM,0.457
same,relative viability,Sorafenib + Pictilisib; first compound 0.08 µM,0.964
same,relative viability,Sorafenib + Pictilisib; first compound 0.253 µM,0.805
same,relative viability,Sorafenib + Pictilisib; first compound 2.53 µM,0.864
same,relative viability,Sorafenib + Pictilisib; first compound 8 µM,0.351
same,relative viability,Sorafenib + Foretinib; first compound 0.08 µM,0.973
same,relative viability,Sorafenib + Foretinib; first compound 0.253 µM,0.852
same,relative viability,Sorafenib + Foretinib; first compound 2.53 µM,0.816
same,relative viability,Sorafenib + Foretinib; first compound 8 µM,0.622
